Data reported in US10519141B2, “Pyrimidine compound and pharmaceutical use thereof” (HANMI PHARM. CO., LTD., priority 2017, dated 2019).

Key:
[1] = test system: RS4-11 cell line; assay: Inhibitory activity in cell growth, MTS test, RS4-11; format: cell-based; settings: Homo sapiens, 72 h, incubation three days
Experimental: RS4-11 cell line was incubated in an RPMI1640 culture medium (10% fetal bovine serum (FBS)) at a temperature of 37° C. The incubated cell line was prepared in an amount of 2.0×10^4 cells/100 μL, and then plated on 96-well plates. The RPMI1640 medium was serially diluted with the test compounds at a concentration in a range of 10 μM to 0.1 nM at a ratio of 1/10. Subsequently, incubation was performed thereon for three days. An MTS test was performed to measure cell viability, and the 50% growth inhibition (GI50) value of the cell line was calculated using GraphPad Prism software.

[2] = target: T1, NUAK1 (ARK5) kinase (Homo sapiens, UniProt O60285); assay: Adapta Universal kinase assay, inhibitory activity for NUAK1 kinase; format: biochemical; settings: compound concentration of 100 nM, read-out: Degree of inhibition (%)
T1 construct: purchased Life Technologies
T1 sequence (O60285 1-661): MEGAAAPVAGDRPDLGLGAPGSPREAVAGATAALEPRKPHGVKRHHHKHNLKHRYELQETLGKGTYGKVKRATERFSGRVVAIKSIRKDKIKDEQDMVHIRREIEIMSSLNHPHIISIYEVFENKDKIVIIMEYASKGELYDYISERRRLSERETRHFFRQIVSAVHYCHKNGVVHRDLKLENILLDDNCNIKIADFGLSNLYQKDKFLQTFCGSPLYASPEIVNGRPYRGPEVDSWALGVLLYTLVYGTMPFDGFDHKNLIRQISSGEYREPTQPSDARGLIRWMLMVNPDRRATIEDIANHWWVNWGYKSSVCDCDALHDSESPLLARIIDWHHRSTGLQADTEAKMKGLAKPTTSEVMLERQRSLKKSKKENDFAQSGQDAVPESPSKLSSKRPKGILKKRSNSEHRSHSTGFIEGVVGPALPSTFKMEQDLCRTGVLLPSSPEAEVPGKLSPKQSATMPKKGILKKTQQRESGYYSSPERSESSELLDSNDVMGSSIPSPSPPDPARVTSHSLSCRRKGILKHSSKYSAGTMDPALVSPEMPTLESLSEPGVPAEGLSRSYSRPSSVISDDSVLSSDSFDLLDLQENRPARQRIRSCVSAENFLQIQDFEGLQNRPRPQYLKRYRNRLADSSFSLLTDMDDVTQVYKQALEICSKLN
Experimental: (§1) Inhibitory activity of the exemplary compounds among the foregoing compounds with respect to AXL, CLK2, VEGFR2 (KDR), NUAK1 kinases were measured. Z'-LYTE™ Kinase Assay Kit-Tyr 6 Peptide (Cat. No. PV4122, available from Life Technologies) for AXL, Z'-LYTE™ Kinase Assay Kit-Ser/Thr peptide 6 (Cat. No. PV3179, available from Life Technologies) for CLK2, Z'-LYTE™ Kinase Assay Kit (Cat. No. PV3190, available from Life Technologies) for VEGFR, and Adapta™ Universal Kinase Assay Kit (Cat. No. PV5099, available from Life Technologies) for NUAK1(ARK5) were used. The experiments were carried out by Life Technologies corporation.

[3] = target: T2, CLK2 kinase (Homo sapiens, UniProt P49760); assay: Z'-LYTE kinase assay, inhibitory activity for CLK2 kinase; format: biochemical; settings: compound concentration of 100 nM, read-out: Degree of inhibition (%)
T2 construct: purchased Life Technologies
Experimental: as §1

[4] = target: T3, VEGFR2 (KDR) kinase (Homo sapiens, UniProt P35968); assay: Z'-LYTE kinase assay, inhibitory activity for VEGFR2 kinase; format: biochemical; settings: compound concentration of 100 nM, read-out: Degree of inhibition (%)
T3 construct: purchased Life Technologies
Experimental: as §1

[5] = target: T4, AXL kinase (Homo sapiens, UniProt P30530); assay: Z'-LYTE kinase assay, inhibitory activity for AXL kinase; format: biochemical; settings: compound concentration of 100 nM, read-out: Degree of inhibition (%)
T4 construct: purchased Life Technologies
T4 sequence (P30530 26-894): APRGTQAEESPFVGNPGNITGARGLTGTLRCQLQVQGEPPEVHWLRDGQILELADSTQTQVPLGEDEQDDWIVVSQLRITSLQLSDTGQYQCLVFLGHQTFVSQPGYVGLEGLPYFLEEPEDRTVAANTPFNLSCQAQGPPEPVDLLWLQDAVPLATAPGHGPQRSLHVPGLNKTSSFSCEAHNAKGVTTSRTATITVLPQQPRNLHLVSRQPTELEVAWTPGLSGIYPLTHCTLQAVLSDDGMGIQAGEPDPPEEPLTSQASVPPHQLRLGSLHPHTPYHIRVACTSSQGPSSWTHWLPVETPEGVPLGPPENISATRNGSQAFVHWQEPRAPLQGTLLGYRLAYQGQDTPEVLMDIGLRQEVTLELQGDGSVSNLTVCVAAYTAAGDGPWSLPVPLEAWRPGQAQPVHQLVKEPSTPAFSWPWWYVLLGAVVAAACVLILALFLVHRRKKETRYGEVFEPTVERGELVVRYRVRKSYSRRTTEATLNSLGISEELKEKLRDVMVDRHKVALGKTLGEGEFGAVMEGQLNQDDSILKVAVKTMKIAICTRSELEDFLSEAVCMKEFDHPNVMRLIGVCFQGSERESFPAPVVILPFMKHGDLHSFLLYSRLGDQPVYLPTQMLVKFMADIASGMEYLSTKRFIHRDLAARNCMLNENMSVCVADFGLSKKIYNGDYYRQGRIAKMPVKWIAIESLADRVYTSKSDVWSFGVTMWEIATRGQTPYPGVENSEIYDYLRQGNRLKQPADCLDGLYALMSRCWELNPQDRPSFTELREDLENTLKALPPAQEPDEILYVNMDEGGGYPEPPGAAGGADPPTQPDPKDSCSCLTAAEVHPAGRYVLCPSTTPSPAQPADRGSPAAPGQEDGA
Experimental: as §1

[6] = test system: MV4-11 cell line; assay: Inhibitory activity in cell growth, MTS test, MV4-11; format: cell-based; settings: Homo sapiens, 72 h, incubation three days
Experimental: MV4-11 cell line was incubated in an IMDM medium (10% FBS) at a temperature of 37° C. The incubated cell line was prepared in an amount of 2×10^4 cells/100 μL, and then plated on 96-well plates. The IMDM medium was treated with cascade dilution of the test compounds at a concentration in a range of 1 μM to 0.01 nM at a rate of 1/10. Subsequently, incubation was performed thereon for three days. MTS test was performed to measure cell viability, and the 50% growth inhibition (GI50) value of the cell line was calculated using GraphPad Prism software.

T2 sequence (P49760 whole entry): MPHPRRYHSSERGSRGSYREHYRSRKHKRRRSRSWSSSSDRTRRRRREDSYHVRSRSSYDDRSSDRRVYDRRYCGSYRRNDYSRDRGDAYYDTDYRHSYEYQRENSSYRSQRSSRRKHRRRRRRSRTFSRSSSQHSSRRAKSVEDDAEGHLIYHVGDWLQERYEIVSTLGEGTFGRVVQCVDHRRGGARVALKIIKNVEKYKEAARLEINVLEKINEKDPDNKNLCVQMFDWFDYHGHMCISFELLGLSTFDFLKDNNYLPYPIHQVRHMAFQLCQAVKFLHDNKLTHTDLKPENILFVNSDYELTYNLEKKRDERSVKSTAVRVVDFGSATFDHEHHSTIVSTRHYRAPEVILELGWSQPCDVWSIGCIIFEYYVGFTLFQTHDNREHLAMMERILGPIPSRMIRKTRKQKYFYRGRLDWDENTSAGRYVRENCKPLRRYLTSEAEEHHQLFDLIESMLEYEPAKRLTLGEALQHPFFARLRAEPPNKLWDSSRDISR
T3 sequence (P35968 20-1356): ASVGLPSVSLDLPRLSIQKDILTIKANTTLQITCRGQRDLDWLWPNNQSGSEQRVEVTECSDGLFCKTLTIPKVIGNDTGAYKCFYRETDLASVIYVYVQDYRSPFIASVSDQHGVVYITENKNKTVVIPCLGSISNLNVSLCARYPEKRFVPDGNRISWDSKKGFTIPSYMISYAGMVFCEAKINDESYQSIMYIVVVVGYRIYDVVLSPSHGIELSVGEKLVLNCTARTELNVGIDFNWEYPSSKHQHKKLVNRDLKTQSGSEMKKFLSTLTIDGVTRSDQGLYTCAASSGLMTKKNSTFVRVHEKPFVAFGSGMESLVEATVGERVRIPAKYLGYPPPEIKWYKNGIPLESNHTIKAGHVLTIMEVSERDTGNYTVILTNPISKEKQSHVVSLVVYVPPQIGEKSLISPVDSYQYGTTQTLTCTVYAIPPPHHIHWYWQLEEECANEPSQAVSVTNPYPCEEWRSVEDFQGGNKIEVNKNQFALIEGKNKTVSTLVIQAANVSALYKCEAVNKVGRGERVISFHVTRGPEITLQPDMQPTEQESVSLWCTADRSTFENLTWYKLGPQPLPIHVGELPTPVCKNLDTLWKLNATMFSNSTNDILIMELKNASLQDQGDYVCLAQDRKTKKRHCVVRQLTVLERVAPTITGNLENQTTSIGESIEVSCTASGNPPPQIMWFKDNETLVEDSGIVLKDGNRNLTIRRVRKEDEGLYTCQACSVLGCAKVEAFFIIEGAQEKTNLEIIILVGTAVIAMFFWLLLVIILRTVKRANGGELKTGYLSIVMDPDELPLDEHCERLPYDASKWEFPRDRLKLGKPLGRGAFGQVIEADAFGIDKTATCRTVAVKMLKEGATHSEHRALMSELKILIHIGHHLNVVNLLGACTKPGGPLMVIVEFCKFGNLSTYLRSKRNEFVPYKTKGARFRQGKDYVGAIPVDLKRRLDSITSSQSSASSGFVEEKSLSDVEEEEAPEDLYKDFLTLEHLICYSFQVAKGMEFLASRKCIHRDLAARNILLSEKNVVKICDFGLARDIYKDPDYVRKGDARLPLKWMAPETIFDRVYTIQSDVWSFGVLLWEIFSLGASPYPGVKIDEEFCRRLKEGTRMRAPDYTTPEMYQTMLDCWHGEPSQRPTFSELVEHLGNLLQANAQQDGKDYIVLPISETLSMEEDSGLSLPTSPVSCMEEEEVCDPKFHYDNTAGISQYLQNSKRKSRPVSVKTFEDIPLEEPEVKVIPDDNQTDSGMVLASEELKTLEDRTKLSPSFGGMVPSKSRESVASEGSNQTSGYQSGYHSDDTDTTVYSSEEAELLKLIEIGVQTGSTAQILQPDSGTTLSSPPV

| SMILES | GI50 [1] [nM] | inhibition at 0.1 µM [2] [%] | inhibition at 0.1 µM [3] [%] | inhibition at 0.1 µM [4] [%] | inhibition at 0.1 µM [5] [%] | GI50 [6] [nM] |
| --- | --- | --- | --- | --- | --- | --- |
| OCCN1CCN(c2cc(Nc3ncc(Cl)c(-c4c[nH]c5cc(F)ccc45)n3)cc(C3CC3)c2)CC1 [Example 1, 2-(4-(3-((5-chloro-4-(6-fluoro-1H-indole-3-yl)pyrimidine-2-yl)amino)-5-cyclopropylphenyl)piperazine-1-yl)ethane-1-ol] | 147 | 84 | 99 | 71 | 52 |  |
| Cc1ccc2c(-c3nc(Nc4cc(C5CC5)cc(N5CCC(N(C)C)CC5)c4)ncc3Cl)c[nH]c2c1 [Example 6, 5-chloro-N-(3-cyclopropyl-5-(4-(dimethylamino)piperidine-1-yl)phenyl)-4-(6-methyl-1H-indole-3-yl)pyrimidine-2-amine] |  | 57 | 66 | 62 | 49 |  |
| COc1ccc2c(-c3nc(Nc4cc(C5CC5)cc(N5CCN(CCO)CC5)c4)ncc3Cl)c[nH]c2c1 [Example 7, 2-(4-(3-((5-chloro-4-(6-methoxy-1H-indole-3-yl)pyrimidine-2-yl)amino)-5-cyclopropylphenyl)piperazine-1-yl)ethane-1-ol] | 33 |  |  |  |  |  |
| CC(C)(CO)N1CCN(Cc2cc(Nc3ncc(Cl)c(-c4c[nH]c5ccccc45)n3)cc(C3CC3)c2)CC1 [Example 38, 2-(4-(3-((5-chloro-4-(1H-indole-3-yl)pyrimidine-2-yl)amino)-5-cyclopropylbenzyl)piperazine-1-yl)-2-methylpropane-1-ol] |  | 63 | 97 | 99 | 51 |  |
| CN(C)C1CCN(c2cccc(Nc3ncc(Cl)c(-c4c[nH]c5ccccc45)n3)c2)C1 (centres unmarked) [Example 30, 5-chloro-N-(3-(3-(dimethylamino)pyrrolidine-1-yl)phenyl)-4-(1H-indole-3-yl)pyrimidine-2-amine] |  |  |  |  |  | 0.8 |
| Cc1ccc2c(-c3nc(Nc4cc(C5CC5)cc(N5CCN(C(C)(C)CO)CC5)c4)ncc3Cl)c[nH]c2c1 [Example 17, 2-(4-(3-((5-chloro-4-(6-methyl-1H-indole-3-yl)pyrimidine-2-yl)amino)-5-cyclopropylphenyl)piperazine-1-yl)-2-methylpropane-1-ol] |  | 72 | 93 | 67 | 66 |  |
| Cc1ccc2c(-c3nc(Nc4cc(C5CC5)cc(N5CCC(N(C)C)C5)c4)ncc3Cl)c[nH]c2c1 (centres unmarked) [Example 16, 5-chloro-N-(3-cyclopropyl-5-(3-(dimethylamino)pyrrolidine-1-yl)phenyl)-4-(6-methyl-1H-indole-3-yl)pyrimidine-2-amine] |  | 67 | 77 | 56 | 27 |  |
| Cc1ccc2c(-c3nc(Nc4cc(C5CC5)cc(N5CCN(CCO)CC5)c4)ncc3Cl)c[nH]c2c1 [Example 2, 2-(4-(3-((5-chloro-4-(6-methyl-1H-indole-3-yl)pyrimidine-2-yl)amino)-5-cyclopropylphenyl)piperazine-1-yl)ethane-1-ol] |  | 71 | 91 | 46 | 56 |  |

The next lines start with the values.

| GI50 [1] [nM] | inhibition at 0.1 µM [2] [%] | inhibition at 0.1 µM [3] [%] | inhibition at 0.1 µM [4] [%] | inhibition at 0.1 µM [5] [%] | GI50 [6] [nM] | SMILES |
| --- | --- | --- | --- | --- | --- | --- |
|  |  |  |  |  | 1.2 | COc1cc(Nc2ncc(Cl)c(-c3c[nH]c4ccccc34)n2)cc(C(=O)N2CCN(CCO)CC2)c1 [Example 50, (3-((5-chloro-4-(1H-indole-3-yl)pyrimidine-2-yl)amino)-5-methoxyphenyl)(4-(2-hydroxyethyl)piperazine-1-yl)methanone] |
|  |  |  |  |  | 1.1 | Cc1ccc2c(-c3nc(Nc4cc(O[C@@H]5CCN(CCO)C5)cc(C5CC5)c4)ncc3Cl)c[nH]c2c1 [Example 53, (R)-2-(3-(3-((5-chloro-4-(6-methyl-1H-indole-3-yl)pyrimidine-2-yl)amino)-5-cyclopropylphenoxy)pyrrolidine-1-yl)ethane-1-ol] |
|  |  |  |  |  | 0.8 | CCc1cc(Nc2ncc(Cl)c(-c3c[nH]c4cc(C)ccc34)n2)cc(OCCN2CCC(O)CC2)c1 [Example 52] |
|  |  |  | 63 | 50 |  | Cc1ccc2c(-c3nc(Nc4cc(CN5CCN(C(C)(C)CO)CC5)cc(C5CC5)c4)ncc3Cl)c[nH]c2c1 [Example 41, 2-(4-(3-((5-chloro-4-(6-methyl-1H-indole-3-yl)pyrimidine-2-yl)amino)-5-cyclopropylbenzyl)piperazine-1-yl)-2-methylpropane-1-ol] |
